# From paper PMC6632053, “Incorporation of Putative Helix-Breaking Amino Acids in the Design of Novel Stapled Peptides: Exploring Biophysical and Cellular Permeability Properties” (Molecules, 2019)
# Where two headings read alike, the source gives them in different places. Bridge positions count the residues as written; N and C are the ends. Square brackets hold non-standard residues; d marks the D form. Peptide text beside a SMILES is read from it. Lys(N3) = [N-]=[N+]=NCCCC[C@H](N)C(=O)O; R8 = C=CCCCCCC[C@@](C)(N)C(=O)O; Cba = N[C@@H](CC1CCC1)C(=O)O; S5 = C=CCCC[C@](C)(N)C(=O)O; βAla = NCCC(=O)O
# Legend:
# human Mdm2 1–125 = target: T1, human Mdm2 1–125 (Homo sapiens, UniProt Q00987); assay: Mdm2 binding assay (competitive fluorescence anisotropy/polarization); conditions: competitive fluorescence polarization, read-out: Mdm2 (nM), Mdm2 binding (Kd)
# T1 construct: GST (N); His6 (internal); TEV cleavage site ENLYFQG (internal); made in house; host or cells: Escherichia coli BL21 (DE3) Rosetta T1R
# T1 sequence (Q00987 with tags, fused parts or gaps): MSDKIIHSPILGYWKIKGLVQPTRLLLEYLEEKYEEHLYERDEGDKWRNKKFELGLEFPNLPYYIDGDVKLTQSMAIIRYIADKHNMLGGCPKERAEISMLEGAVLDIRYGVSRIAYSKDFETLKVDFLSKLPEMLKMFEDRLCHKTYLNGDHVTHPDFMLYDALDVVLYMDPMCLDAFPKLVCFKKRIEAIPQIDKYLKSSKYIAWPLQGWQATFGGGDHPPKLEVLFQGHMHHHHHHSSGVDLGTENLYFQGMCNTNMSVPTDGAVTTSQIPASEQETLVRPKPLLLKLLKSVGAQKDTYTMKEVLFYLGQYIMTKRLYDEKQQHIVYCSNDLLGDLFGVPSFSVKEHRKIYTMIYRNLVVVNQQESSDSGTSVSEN
# Description: The TEV (tobacco etch virus) cleavage site was changed from ENLYFQS to ENLYFQG to give a fusion protein with the following sequence:
# Titrations were carried out with the concentration of Mdm2 held constant at 250 nM and the labeled peptide at 50 nM. The competing molecules were then titrated against the complex of the FAM-labeled peptide and protein. Apparent Kd values were determined by fitting the experimental data to the equations shown below:(2) r=r0+(rb−r0)×2(d^2−3e)cos(θ/3)−9/3Kd1+2(d^2−3e)cos(θ/3)−dd=Kd1+Kd2+[L]st+[L]t−[P]te=([L]t−[P]t)Kd1+([L]st−[P]t)Kd2+Kd1Kd2f=−Kd1Kd2[P]tθ=arcos[−2d^3+9de−27f/2(d^2−3e)^3] where [L]st and [L]t denote labeled ligand and total unlabeled ligand input concentrations, respectively. Kd2 is the dissociation constant of the interaction between the unlabeled ligand and the protein. In all competition experiments, it was assumed that [P]t > [L]st, otherwise considerable amounts of free labeled ligand would always be present and would interfere with measurements. Kd1 is the apparent Kd for the labeled peptide used and was experimentally determined as described in the previous paragraph. The FAM-labeled peptide was dissolved in dimethyl sulfoxide (DMSO) at 1 mM and diluted into the experimental buffer. Readings were carried out with an Envision Multilabel Reader (PerkinElmer). Experiments were carried out in PBS (2.7 mM KCl, 137mM NaCl, 10 mM Na2HPO4, and 2 mM KH2PO4 (pH 7.4)) and 0.1% Tween 20 buffer. All titrations were carried out in triplicate. Curve-fitting was carried out using Prism 4.0 (GraphPad). […] Negative control titrations of the ligands under investigation were also carried out with the fluorescently labeled peptide (in the absence of Mdm2) to ensure no interactions were occurring between the ligands and the FAM-labeled peptide.
# [1] = Circular dichroism (CD) α-helicity; format: physicochemical; conditions: for Helicity (%): CD of free peptide, 25 °C, 1 mM Hepes pH 7.4, 5% methanol
# Description: A total of 5 µL of the 10 mM stock peptide was mixed with 45 µL of 100% methanol, and dried for 2 h in the SpeedVac concentrator (Thermo Scientific). The dried peptide was reconstituted in a buffer (1 mM Hepes pH 7.4 and 5% methanol) to a concentration of 1 mM. The peptide sample was placed in a quartz cuvette with a path length of 0.2 cm. The peptide concentration was determined by the absorbance of the peptide at […]. The CD spectrum was recorded from 300 to 190 nm using the Chirascan-plus qCD machine (Applied Photophysics, Surrey, UK), at 25 °C. All experiments were done in duplicates. The CD spectrum was converted to mean residue ellipticity, before deconvolution and estimation of the secondary structure components of the peptide using the CDNN software (distributed by Applied Photophysics).
# [2] = test system: p53 responsive β-lactamase reporter in HCT116 cells; assay: p53 beta-lactamase reporter gene cellular functional assay; format: cell-based; conditions: p53 reporter assay, HCT116, read-out: Cellular (µM), cellular activity (EC50)
# Description: HCT116 cells were stably transfected with a p53 responsive β-lactamase reporter and were seeded into a 384-well plate at a density of 8000 cells per well. Cells were maintained in McCoy’s 5A Medium with 10% fetal bovine serum (FBS), Blasticidin, and Penicillin/Streptomycin. The cells were incubated overnight, followed by removal of cell growth media and replacement with Opti-MEM either containing 0% FBS or 10% FBS. […] The final working concentration of DMSO was 0.5%. β-lactamase activity was detected using the ToxBLAzer Dual Screen (Invitrogen), as per the manufacturer’s instructions. Measurements were made using the Envision multiplate reader (Perkin–Elmer).
Compound,Kd (human Mdm2 1–125; Table 1) [nM],Helicity (%) ([1]; Table 1),EC50 ([2]; Table 1) [µM],Kd (human Mdm2 1–125; Table 2) [nM],Helicity (%) ([1]; Table 2),EC50 ([2]; Table 2) [µM],α-helicity by CD [1] [%]
CC(=O)N[C@@H](CC(C)C)C(=O)N[C@H](C(=O)N[C@@H](Cc1ccccc1)C(=O)N[C@]1(C)CCCCCCC=CCCC[C@@](C)(C(=O)N[C@@H](CO)C(=O)N[C@H](C)C(=O)N[C@@H](C)C(N)=O)NC(=O)[C@H](CC2CCC2)NC(=O)[C@H](CC(C)C)NC(=O)[C@H](CCC(N)=O)NC(=O)[C@H](Cc2c[nH]c3ccccc23)NC(=O)[C@H](Cc2ccc(O)cc2)NC(=O)[C@H](CCC(=O)O)NC1=O)[C@@H](C)O [A13(D-Ala)],17,41.8,0.6,,,,
CC(=O)N[C@@H](CCCCN=[N+]=[N-])C(=O)NCCC(=O)N[C@@H](CC(C)C)C(=O)N[C@H](C(=O)N[C@@H](Cc1ccccc1)C(=O)N[C@]1(C)CCCCCCC=CCCC[C@@](C)(C(=O)N[C@@H](CO)C(=O)N(C)[C@@H](C)C(=O)N[C@@H](C)C(N)=O)NC(=O)[C@H](CC2CCC2)NC(=O)[C@H](CCC(N)=O)NC(=O)[C@H](C)NC(=O)[C@H](Cc2c[nH]c3ccccc23)NC(=O)[C@H](Cc2ccc(O)cc2)NC(=O)[C@H](CCC(=O)O)NC1=O)[C@@H](C)O [A13(N-methyl L-Ala)],,,,10,38.6,1.6,
CC(=O)N[C@@H](CC(C)C)C(=O)N[C@H](C(=O)N[C@@H](Cc1ccccc1)C(=O)N[C@]1(C)CCCCCCC=CCCC[C@@](C)(C(=O)N[C@@H](CO)C(=O)N[C@@H](C)C(=O)N[C@H](C)C(N)=O)NC(=O)[C@H](CC2CCC2)NC(=O)[C@H](CC(C)C)NC(=O)[C@H](CCC(N)=O)NC(=O)[C@H](Cc2c[nH]c3ccccc23)NC(=O)[C@H](Cc2ccc(O)cc2)NC(=O)[C@H](CCC(=O)O)NC1=O)[C@@H](C)O [A14(D-Ala)],18,34.6,0.5,,,,
CC(=O)N[C@@H](CC(C)C)C(=O)N[C@H](C(=O)N[C@@H](Cc1ccccc1)C(=O)N[C@]1(C)CCCCCCC=CCCC[C@@](C)(C(=O)N[C@@H](CO)C(=O)N[C@@H](C)C(=O)N[C@@H](C)C(N)=O)NC(=O)[C@H](CC2CCC2)NC(=O)[C@H](CC(C)C)NC(=O)[C@H](CCC(N)=O)NC(=O)[C@H](Cc2c[nH]c3ccccc23)NC(=O)[C@H](Cc2ccc(O)cc2)NC(=O)[C@@H](CCC(=O)O)NC1=O)[C@@H](C)O [E5(D-Glu)],32,38.2,1,,,,
CC(=O)N[C@@H](CC(C)C)C(=O)N[C@H](C(=O)N[C@H](Cc1ccccc1)C(=O)N[C@]1(C)CCCCCCC=CCCC[C@@](C)(C(=O)N[C@@H](CO)C(=O)N[C@@H](C)C(=O)N[C@@H](C)C(N)=O)NC(=O)[C@H](CC2CCC2)NC(=O)[C@H](CC(C)C)NC(=O)[C@H](CCC(N)=O)NC(=O)[C@H](Cc2c[nH]c3ccccc23)NC(=O)[C@H](Cc2ccc(O)cc2)NC(=O)[C@H](CCC(=O)O)NC1=O)[C@@H](C)O [F3(D-Phe)],6480,51.8,> 50,,,,
CC(=O)N[C@H](CC(C)C)C(=O)N[C@H](C(=O)N[C@@H](Cc1ccccc1)C(=O)N[C@]1(C)CCCCCCC=CCCC[C@@](C)(C(=O)N[C@@H](CO)C(=O)N[C@@H](C)C(=O)N[C@@H](C)C(N)=O)NC(=O)[C@H](CC2CCC2)NC(=O)[C@H](CC(C)C)NC(=O)[C@H](CCC(N)=O)NC(=O)[C@H](Cc2c[nH]c3ccccc23)NC(=O)[C@H](Cc2ccc(O)cc2)NC(=O)[C@H](CCC(=O)O)NC1=O)[C@@H](C)O [L1(D-Leu)],31,44.1,0.6,,,,
"CC(=O)N[C@@H](CCCCN=[N+]=[N-])C(=O)NCCC(=O)NCC(=O)N[C@H](C(=O)N[C@@H](Cc1ccccc1)C(=O)N[C@]1(C)CCCCCCC=CCCC[C@@](C)(C(=O)N[C@@H](CO)C(=O)N[C@@H](C)C(=O)N[C@@H](C)C(N)=O)NC(=O)[C@H](CC2CCC2)NC(=O)[C@H](CCC(N)=O)NC(=O)CNC(=O)[C@H](Cc2c[nH]c3ccccc23)NC(=O)[C@H](Cc2ccc(O)cc2)NC(=O)CNC1=O)[C@@H](C)O [L1G, E5G, A8G] (Ac-[Lys(N3)][βAla]GTF[R8]GYWGQ[Cba][S5]SAA-NH2; staple 6-13)",,,,49.8,20.4,1.7,20.4
CC(=O)N[C@@H](CC(C)C)C(=O)N[C@H](C(=O)N[C@@H](Cc1ccccc1)C(=O)N[C@]1(C)CCCCCCC=CCCC[C@@](C)(C(=O)N[C@@H](CO)C(=O)N[C@@H](C)C(=O)N[C@@H](C)C(N)=O)NC(=O)[C@H](CC2CCC2)NC(=O)[C@@H](CC(C)C)NC(=O)[C@H](CCC(N)=O)NC(=O)[C@H](Cc2c[nH]c3ccccc23)NC(=O)[C@H](Cc2ccc(O)cc2)NC(=O)[C@H](CCC(=O)O)NC1=O)[C@@H](C)O [L9(D-Leu)],30,39.0,1.1,,,,
CC(=O)N[C@H](CC(C)C)C(=O)N[C@H](C(=O)N[C@@H](Cc1ccccc1)C(=O)NC(C)(C)C(=O)N[C@@H](CCC(=O)O)C(=O)N[C@@H](Cc1ccc(O)cc1)C(=O)N[C@@H](Cc1c[nH]c2ccccc12)C(=O)N[C@@H](CCC(N)=O)C(=O)N[C@@H](CC(C)C)C(=O)N[C@@H](CC1CCC1)C(=O)NC(C)(C)C(=O)N[C@@H](CO)C(=O)N[C@@H](C)C(=O)N[C@@H](C)C(N)=O)[C@@H](C)O [Linear L1(D-Leu)],277,37.2,> 50,,,,
CC(=O)N[C@@H](CC(C)C)C(=O)N[C@H](C(=O)N[C@@H](Cc1ccccc1)C(=O)NC(C)(C)C(=O)N[C@@H](CCC(=O)O)C(=O)N[C@@H](Cc1ccc(O)cc1)C(=O)N[C@@H](Cc1c[nH]c2ccccc12)C(=O)N[C@@H](CCC(N)=O)C(=O)N[C@H](CC(C)C)C(=O)N[C@@H](CC1CCC1)C(=O)NC(C)(C)C(=O)N[C@@H](CO)C(=O)N[C@@H](C)C(=O)N[C@@H](C)C(N)=O)[C@@H](C)O [Linear L9(D-Leu)],88,19.7,> 50,,,,
CC(=O)N[C@@H](CC(C)C)C(=O)N[C@H](C(=O)N[C@@H](Cc1ccccc1)C(=O)NC(C)(C)C(=O)N[C@@H](CCC(=O)O)C(=O)N[C@@H](Cc1ccc(O)cc1)C(=O)N[C@@H](Cc1c[nH]c2ccccc12)C(=O)N[C@H](CCC(N)=O)C(=O)N[C@@H](CC(C)C)C(=O)N[C@@H](CC1CCC1)C(=O)NC(C)(C)C(=O)N[C@@H](CO)C(=O)N[C@@H](C)C(=O)N[C@@H](C)C(N)=O)[C@@H](C)O [Linear Q8(D-Gln)],119,21.8,> 50,,,,
CC(=O)N[C@@H](CC(C)C)C(=O)N[C@H](C(=O)N[C@@H](Cc1ccccc1)C(=O)N[C@]1(C)CCCCCCC=CCCC[C@@](C)(C(=O)N[C@@H](CO)C(=O)N[C@@H](C)C(=O)N[C@@H](C)C(N)=O)NC(=O)[C@H](CC2CCC2)NC(=O)[C@H](CC(C)C)NC(=O)[C@H](CCC(N)=O)NC(=O)[C@H](Cc2c[nH]c3ccccc23)NC(=O)[C@H](Cc2ccc(O)cc2)NC(=O)[C@H](C)NC1=O)[C@@H](C)O [Peptide E5A] (Ac-LTF[R8]AYWQL[Cba][S5]SAA-NH2; staple 4-11),29.8,27.6,0.18,,,,
CC(=O)N[C@@H](CCCCN=[N+]=[N-])C(=O)NCCC(=O)N[C@@H](CC(C)C)C(=O)N[C@H](C(=O)N[C@@H](Cc1ccccc1)C(=O)N[C@]1(C)CCCCCCC=CCCC[C@@](C)(C(=O)N[C@@H](CO)C(=O)N[C@@H](C)C(=O)N[C@@H](C)C(N)=O)NC(=O)[C@H](CC2CCC2)NC(=O)[C@H](CCC(N)=O)NC(=O)[C@H](C)NC(=O)[C@H](Cc2c[nH]c3ccccc23)NC(=O)[C@H](Cc2ccc(O)cc2)NC(=O)CNC1=O)[C@@H](C)O [Peptide E5G],,,,61.8,28.6,0.26,28.6
